ChEMBL document CHEMBL5512671, “Structure-Based Optimization of Novel Sterol 24-C-Methyltransferase Inhibitors for the Treatment of Candida albicans Infections” (J Med Chem, 2024)
Values after ≈ are worked out from the molar mass of the structure shown.

Columns and labels:
[1] = tested on: Candida albicans; test: Antifungal activity against Candida albicans SC5314 assessed as inhibition of fungal growth incubated for 24 hrs by CLSI protocol based broth microdilution method; type: functional
[2] = tested on: Candida albicans; test: Antifungal activity against Candida albicans SC5314 assessed as inhibition of hyphae growth incubated for 24 hrs by CLSI protocol based broth microdilution method; type: functional
[3] = Cytotoxicity against human BEAS-2B cells incubated for 48 hrs by CCK-8 method; type: toxicity, cell-based
[4] = Cytotoxicity against human HUVEC cells incubated for 48 hrs by CCK-8 method; type: toxicity, cell-based
[5] = Hemolytic activity in mouse RBC assessed as hemolysis at 2 to 32 ug/ml incubated for 60 mins by absorbance based analysis relative to control; type: toxicity, cell-based, Erythrocyte; details: mouse red blood cells, at 2 to 32 µg/mL, dose 2-32 µg/ml, read-out: Activity

SMILES | MIC80 [1] | MIC50 [2] | EC50 at 48 h [3] | EC50 at 48 h [4] | hemolysis at 1 h [5]
Cc1c(-n2c(-c3ccc(Cl)cc3Cl)cs/c2=N\c2ccccc2)c(=O)n(-c2ccccc2)n1C | > 128 µg/mL | > 128 µg/mL | – | – | –
Cc1c(-n2c(-c3nccs3)cs/c2=N\c2ccccc2)c(=O)n(-c2ccccc2)n1C | > 128 µg/mL | > 128 µg/mL | – | – | –
Cc1c(-n2c(-c3ccc(Cl)cc3Cl)cs/c2=N\c2ccc(Br)cc2)c(=O)n(-c2ccccc2)n1C | > 128 µg/mL | > 128 µg/mL | – | – | –
COc1ccc2cc(-c3cs/c(=N\c4ccccc4)n3-c3c(C)n(C)n(-c4ccccc4)c3=O)ccc2c1 | > 128 µg/mL | > 128 µg/mL | – | – | –
Cc1c(-n2c(-c3ccc(Br)cc3)cs/c2=N\c2cccnc2)c(=O)n(-c2ccccc2)n1C | > 128 µg/mL | > 128 µg/mL | – | – | –
Cc1c(-n2c(-c3ccc(I)cc3)cs/c2=N\c2ccccc2)c(=O)n(-c2ccccc2)n1C | > 128 µg/mL | > 128 µg/mL | – | – | –
Cc1c(-n2c(-c3ccc(F)cc3)cs/c2=N\c2ccc(Br)cc2)c(=O)n(-c2ccccc2)n1C | > 128 µg/mL | > 128 µg/mL | – | – | –
Cc1c(-n2c(-c3ccc(C(F)(F)F)cc3)cs/c2=N\c2ccc(Br)cc2)c(=O)n(-c2ccccc2)n1C | > 128 µg/mL | > 128 µg/mL | – | – | –
Cc1c(-n2c(-c3ccc(C#N)cc3)cs/c2=N\c2ccc(Br)cc2)c(=O)n(-c2ccccc2)n1C | > 128 µg/mL | > 128 µg/mL | – | – | –
Cc1c(-n2c(-c3cccnc3)cs/c2=N\c2ccc(Br)cc2)c(=O)n(-c2ccccc2)n1C | > 128 µg/mL | > 128 µg/mL | – | – | –
COc1ccc(/N=c2\scc(-c3ccc4ccccc4c3)n2-c2c(C)n(C)n(-c3ccccc3)c2=O)cc1 | > 128 µg/mL | 4 µg/mL (≈ 7.71 µM) | – | – | –
Cc1c(-n2c(-c3ccc4ccccc4c3)cs/c2=N\c2cccnc2)c(=O)n(-c2ccccc2)n1C | > 128 µg/mL | 32 µg/mL (≈ 65.4 µM) | – | – | –
Cc1c(-n2c(-c3ccc4ccccc4c3)cs/c2=N\c2ccc(Br)cc2)c(=O)n(-c2ccccc2)n1C | > 128 µg/mL | 2 µg/mL (≈ 3.52 µM) | > 50 µg/mL | > 50 µg/mL | < 1%
Cc1c(-n2c(-c3cccs3)cs/c2=N\c2ccccc2)c(=O)n(-c2ccccc2)n1C | > 128 µg/mL | > 128 µg/mL | – | – | –
Cc1c(-n2c(-c3ccncc3)cs/c2=N\c2ccc(Br)cc2)c(=O)n(-c2ccccc2)n1C | > 128 µg/mL | > 128 µg/mL | – | – | –
COc1ccc(-c2cs/c(=N\c3ccccc3)n2-c2c(C)n(C)n(-c3ccccc3)c2=O)cc1 | > 128 µg/mL | > 128 µg/mL | – | – | –
Cc1c(-n2c(-c3ccncc3)cs/c2=N\c2ccccc2)c(=O)n(-c2ccccc2)n1C | > 128 µg/mL | > 128 µg/mL | – | – | –
Cc1c(-n2c(-c3ccccn3)cs/c2=N\c2ccc(Br)cc2)c(=O)n(-c2ccccc2)n1C | > 128 µg/mL | > 128 µg/mL | – | – | –
COc1cc(-c2cs/c(=N\c3ccccc3)n2-c2c(C)n(C)n(-c3ccccc3)c2=O)cc(OC)c1OC | > 128 µg/mL | > 128 µg/mL | – | – | –
Cc1c(-n2c(-c3ccc(O)cc3)cs/c2=N\c2ccccc2)c(=O)n(-c2ccccc2)n1C | > 128 µg/mL | > 128 µg/mL | – | – | –
Cc1c(-n2c(-c3ccc(C#N)cc3)cs/c2=N\c2ccccc2)c(=O)n(-c2ccccc2)n1C | > 128 µg/mL | > 128 µg/mL | – | – | –

SMILES | MIC80 [1] | MIC50 [2] | EC50 at 48 h [3] | EC50 at 48 h [4] | hemolysis at 1 h [5]
Cc1c(-n2c(-c3ccc4ccccc4c3)cs/c2=N\c2cccc(OCc3ccccc3)c2)c(=O)n(-c2ccccc2)n1C | > 128 µg/mL | > 128 µg/mL | – | – | –
Cc1c(-n2c(-c3cccc(N)c3)cs/c2=N\c2ccccc2)c(=O)n(-c2ccccc2)n1C | > 128 µg/mL | > 128 µg/mL | – | – | –
Cc1c(-n2c(-c3ccc(Br)cc3)cs/c2=N\c2ccc(Br)cc2)c(=O)n(-c2ccccc2)n1C | > 128 µg/mL | 1 µg/mL (≈ 1.68 µM) | > 50 µg/mL | > 50 µg/mL | < 1%
Cc1c(-n2c(-c3ccc(O)c(C=O)c3)cs/c2=N\c2ccc(Br)cc2)c(=O)n(-c2ccccc2)n1C | > 128 µg/mL | > 128 µg/mL | – | – | –
Cc1c(-n2c(-c3ccc(C(F)(F)F)cc3)cs/c2=N\c2ccccc2)c(=O)n(-c2ccccc2)n1C | > 128 µg/mL | 4 µg/mL (≈ 7.9 µM) | – | – | –
Cc1c(-n2c(-c3cc4ccccc4o3)cs/c2=N\c2ccccc2)c(=O)n(-c2ccccc2)n1C | > 128 µg/mL | 2 µg/mL (≈ 4.18 µM) | – | – | –
COc1ccc(/N=c2\scc(-c3ccc(Br)cc3)n2-c2c(C)n(C)n(-c3ccccc3)c2=O)cc1 | > 128 µg/mL | 16 µg/mL (≈ 29.2 µM) | – | – | –
Cc1c(-n2c(-c3ccc4ccccc4c3)cs/c2=N\c2cccc3ccccc23)c(=O)n(-c2ccccc2)n1C | > 128 µg/mL | 0.5 µg/mL (≈ 0.928 µM) | > 50 µg/mL | > 50 µg/mL | < 1%
COc1cccc(-c2cs/c(=N\c3ccccc3)n2-c2c(C)n(C)n(-c3ccccc3)c2=O)c1 | > 128 µg/mL | > 128 µg/mL | – | – | –
Cc1c(-n2c(C3CC3)cs/c2=N\c2ccccc2)c(=O)n(-c2ccccc2)n1C | > 128 µg/mL | > 128 µg/mL | – | – | –
Cc1c(-n2c(-c3ccc(O)c(C=O)c3)cs/c2=N\c2ccccc2)c(=O)n(-c2ccccc2)n1C | > 128 µg/mL | > 128 µg/mL | – | – | –
C=CC(=O)Nc1cccc(-c2cs/c(=N\c3ccccc3)n2-c2c(C)n(C)n(-c3ccccc3)c2=O)c1 | > 128 µg/mL | > 128 µg/mL | – | – | –
Cc1c(-n2c(-c3ccc(O)cc3)cs/c2=N\c2ccc(Br)cc2)c(=O)n(-c2ccccc2)n1C | > 128 µg/mL | > 128 µg/mL | – | – | –
Cc1c(-n2c(-c3ccc(Cl)cc3)cs/c2=N\c2ccc(Br)cc2)c(=O)n(-c2ccccc2)n1C | > 128 µg/mL | 8 µg/mL (≈ 14.5 µM) | – | – | –
Cc1c(-n2c(C3CCN(C(=O)OC(C)(C)C)CC3)cs/c2=N\c2ccccc2)c(=O)n(-c2ccccc2)n1C | > 128 µg/mL | > 128 µg/mL | – | – | –
Cc1c(-n2c(-c3ccccc3Cl)cs/c2=N\c2ccccc2)c(=O)n(-c2ccccc2)n1C | > 128 µg/mL | > 128 µg/mL | – | – | –
Cc1c(-n2c(-c3ccc(Br)cc3)cs/c2=N\c2ccc3ccccc3c2)c(=O)n(-c2ccccc2)n1C | > 128 µg/mL | 1 µg/mL (≈ 1.76 µM) | > 50 µg/mL | > 50 µg/mL | < 1%
Cc1c(-n2c(-c3ccc(-c4ccccc4)cc3)cs/c2=N\c2ccccc2)c(=O)n(-c2ccccc2)n1C | > 128 µg/mL | > 128 µg/mL | – | – | –
Cc1c(-n2c(-c3ccc(Br)cc3)cs/c2=N\c2ccc(C(F)(F)F)cc2)c(=O)n(-c2ccccc2)n1C | > 128 µg/mL | 8 µg/mL (≈ 13.7 µM) | – | – | –
Cc1ccc(-c2cs/c(=N\c3ccccc3)n2-c2c(C)n(C)n(-c3ccccc3)c2=O)cc1 | > 128 µg/mL | 4 µg/mL (≈ 8.84 µM) | – | – | –
Cc1c(-n2c(-c3ccc4ccc5cccc6ccc3c4c56)cs/c2=N\c2ccccc2)c(=O)n(-c2ccccc2)n1C | > 128 µg/mL | > 128 µg/mL | – | – | –

SMILES | MIC80 [1] | MIC50 [2] | EC50 at 48 h [3] | EC50 at 48 h [4] | hemolysis at 1 h [5]
Cc1c(-n2c(-c3cccc([N+](=O)[O-])c3)cs/c2=N\c2ccccc2)c(=O)n(-c2ccccc2)n1C | > 128 µg/mL | > 128 µg/mL | – | – | –
Cc1c(-n2c(-c3ccc(Cl)cc3)cs/c2=N\c2ccccc2)c(=O)n(-c2ccccc2)n1C | > 128 µg/mL | 4 µg/mL (≈ 8.46 µM) | – | – | –
Cc1c(-n2c(-c3ccc4ccccc4c3)cs/c2=N\c2ccc3ccccc3c2)c(=O)n(-c2ccccc2)n1C | > 128 µg/mL | 0.5 µg/mL (≈ 0.928 µM) | > 50 µg/mL | > 50 µg/mL | < 1%
Cc1c(-[n+]2c(-c3ccc(Br)cc3)csc2N(C)c2ccccc2)c(=O)n(-c2ccccc2)n1C.[I-] | > 128 µg/mL | > 128 µg/mL | – | – | –
Cc1c(-n2c(-c3ccc4ccccc4c3)cs/c2=N\c2ccc(C(F)(F)F)cc2)c(=O)n(-c2ccccc2)n1C | > 128 µg/mL | 2 µg/mL (≈ 3.59 µM) | > 50 µg/mL | > 50 µg/mL | < 1%
Cc1c(-n2c(-c3ccc(S(C)(=O)=O)cc3)cs/c2=N\c2ccccc2)c(=O)n(-c2ccccc2)n1C | > 128 µg/mL | > 128 µg/mL | – | – | –
Cc1c(-n2c(C34CC5CC(CC(C5)C3)C4)cs/c2=N\c2ccccc2)c(=O)n(-c2ccccc2)n1C | > 128 µg/mL | > 128 µg/mL | – | – | –
Cc1c(-n2c(-c3cccc(F)c3)cs/c2=N\c2ccccc2)c(=O)n(-c2ccccc2)n1C | > 128 µg/mL | > 128 µg/mL | – | – | –
Cc1c(-n2c(-c3cccnc3)cs/c2=N\c2ccccc2)c(=O)n(-c2ccccc2)n1C | > 128 µg/mL | > 128 µg/mL | – | – | –
CC(=O)c1cs/c(=N\c2ccccc2)n1-c1c(C)n(C)n(-c2ccccc2)c1=O | > 128 µg/mL | > 128 µg/mL | – | – | –
Cc1c(-n2c(-c3ccc(OC(F)(F)F)cc3)cs/c2=N\c2ccccc2)c(=O)n(-c2ccccc2)n1C | > 128 µg/mL | 8 µg/mL (≈ 15.3 µM) | – | – | –
Cc1c(-n2c(-c3cccc(Cl)c3)cs/c2=N\c2ccccc2)c(=O)n(-c2ccccc2)n1C | > 128 µg/mL | > 128 µg/mL | – | – | –
Cc1c(-n2c(-c3cc4ccccc4oc3=O)cs/c2=N\c2ccccc2)c(=O)n(-c2ccccc2)n1C | > 128 µg/mL | > 128 µg/mL | – | – | –
Cc1c(-n2c(-c3cccc([N+](=O)[O-])c3)cs/c2=N\c2ccc(Br)cc2)c(=O)n(-c2ccccc2)n1C | > 128 µg/mL | > 128 µg/mL | – | – | –
Cc1c(-n2c(-c3ccc(F)cc3)cs/c2=N\c2ccccc2)c(=O)n(-c2ccccc2)n1C | > 128 µg/mL | > 128 µg/mL | – | – | –
Cc1c(-n2c(-c3ccc(N(C)C)cc3)cs/c2=N\c2ccccc2)c(=O)n(-c2ccccc2)n1C | > 128 µg/mL | 2 µg/mL (≈ 4.15 µM) | > 50 µg/mL | > 50 µg/mL | < 1%
C#CCOc1ccc(-c2cs/c(=N\c3ccccc3)n2-c2c(C)n(C)n(-c3ccccc3)c2=O)cc1 | > 128 µg/mL | > 128 µg/mL | – | – | –
Cc1c(-n2c(-c3ccccn3)cs/c2=N\c2ccccc2)c(=O)n(-c2ccccc2)n1C | > 128 µg/mL | > 128 µg/mL | – | – | –
Cc1c(-n2c(-c3ccccc3)cs/c2=N\c2ccccc2)c(=O)n(-c2ccccc2)n1C | > 128 µg/mL | > 128 µg/mL | – | – | –
